Measured values published in patent US5411933A, “Bromopropargyl quarternary ammonium compounds having antimicrobial activity” (Rohm & Haas Company, priority 1994, dated 1995).

How the values were obtained:
Escherichia coli = experiment: minimum inhibitory concentration, broth two-fold serial dilution test, Escherichia coli; format: cell-based, Escherichia coli ATCC 11229; settings: for MIC: Escherichia coli, ATCC11229, Escherichia coli ATCC 11229, TSB media, lowest concentration with complete inhibition of growth, read-out: MIC (TSB media) Ecol; for MIC (TSB media) Ecol: Escherichia coli ATCC 11229, lowest concentration with complete inhibition of growth
Protocol: (§1) Bactericidal and fungicidal evaluations of the compounds of Example 5 were carried out.
(§2) A minimum inhibitory concentration (MIC) value is obtained using a broth, two-fold serial dilution test performed as follows: A stock solution or dispersion of the test compound, typically at a concentration of 1%, is made in a 5:3:2 solvent solution of acetone, methanol, and water. A volume of the stock solution is dispensed into culture media to give an initial starting test concentration of 500 ppm compound.
(§3) When the test is ready to be done, each vessel in the dilution series, except the first vessel, contains an equal volume of compound free broth. The first vessel contains twice the volume of broth with the starting concentration of test compound. One half of the broth from the first vessel is transferred to the second vessel. After being mixed, one half the resulting volume is removed from the second vessel and transferred to the third vessel. The entire cycle is repeated sufficiently to give a series of concentrations amounting to 500, 250, 125, 63, 31, 16, 8 and 4, 2, 1, 0.5, 0.25 ppm respectively.
(§4) Each vessel is then inoculated with a cell suspension of the appropriate test organism. Bacteria are grown in broth, fungi or agar slants for a time and at a temperature appropriate to the species being tested, and algae are a mixture of green algae and blue-green bacteria grown in a nutrient media. At the end of the growth period, in the case of bacteria, the broth is vortexed to disperse the cells.
(§5) The vessels are then incubated at the appropriate temperature. After the incubation, the vessels are examined for growth/no growth. The minimum inhibitory concentration (MIC) is defined as the lowest concentration of compounds that results in complete inhibition of growth of the test organism.

Pseudomonas aeruginosa = experiment: minimum inhibitory concentration, broth two-fold serial dilution test, Pseudomonas aeruginosa; format: cell-based, Pseudomonas aeruginosa ATCC 15442; settings: for MIC: Pseudomonas aeruginosa, ATCC15442, Pseudomonas aeruginosa ATCC 15442, TSB media, lowest concentration with complete inhibition of growth, read-out: MIC (TSB media) Psae; for MIC (TSB media) Psae: Pseudomonas aeruginosa ATCC 15442, lowest concentration with complete inhibition of growth
Protocol: as §1, §2, §3, §4, §5
1. Pseudomonas aeruginosa

Aspergillus niger = experiment: minimum inhibitory concentration, broth two-fold serial dilution test, Aspergillus niger; format: cell-based, Aspergillus niger ATCC 6275; settings: for MIC: Aspergillus niger, ATCC6275, Aspergillus niger ATCC 6275, TSB media, lowest concentration with complete inhibition of growth, read-out: MIC (TSB media) Anig; for MIC (TSB media) Anig: Aspergillus niger ATCC 6275, lowest concentration with complete inhibition of growth
Protocol: as §1, §2, §3, §4
(§6) In the case of fungi, the spores are harvested by pipetting water onto the slant and dislodging the spores with a sterile loop. The cell/spore suspension is standardized by controlling incubation time, temperature, and the volume of the diluent. The suspension is then used to inoculate the vessels containing the broth compound.
as §5
3. Aspergillus niger 6275 Anig

Rhodotorula rubra = experiment: minimum inhibitory concentration, broth two-fold serial dilution test, Rhodotorula rubra; format: cell-based; settings: lowest concentration with complete inhibition of growth; for MIC: Rhodotorula, TSB media, read-out: MIC (TSB media) Rrub
Protocol: as §1, §2, §3, §4, §6, §5
4. Rhodotorula rubra Rrub

Row | Compound | MIC (Escherichia coli) | MIC (Pseudomonas aeruginosa) | MIC (Aspergillus niger) | MIC (Rhodotorula rubra) | MIC (TSB media) Ecol (Escherichia coli) | MIC (TSB media) Psae (Pseudomonas aeruginosa) | MIC (TSB media) Anig (Aspergillus niger) | MIC (TSB media) Rrub (Rhodotorula rubra)
1 | CCCCCCCCCCCC[N+]1(CC#CBr)CCOCC1 [Compound 12, 1-dodecyl-1-(3-bromopropargyl)-morpholinium 4-methylbenzenesulfonate] | 63 µg/mL | 500 µg/mL | 16 µg/mL | < 4 µg/mL |  |  |  | 
2 | CCCCCCCCCCCCCCCC[N+]1(CC#CBr)CCOCC1 [Compound 11, 1-hexadecyl-1-(3-bromopropargyl)-morpholinium bromide] |  | 500 µg/mL |  |  | 16 ppm |  | < 4 ppm | < 4 ppm
3 | CCCCCCCCCCCCCCCC[N+]1(CC#CBr)CCOCC1 [Compound 13, 1-hexadecyl-1-(3-bromopropargyl)-morpholinium methanesulfonate] |  |  |  |  | > 500 ppm | 500 ppm | 16 ppm | 32 ppm
4 | CCCCCCCCCCCCCC[N+]1(CC#CBr)CCOCC1 [Compound 2, 1-tetradecyl-1-(3-bromopropargyl)-morpholinium benzenesulfonate] |  |  | < 4 µg/mL | < 4 µg/mL | 8 ppm | 63 ppm |  | 
5 | CCCCCCCCCCCCCC[N+]1(CC#CBr)CCCCC1C (centres unmarked) [Compound 14, 1-tetradecyl-1-(3-bromopropargyl)-(2-methyl)piperidinium 4-methylbenzenesulfonate] | < 4 µg/mL |  | < 4 µg/mL |  |  | 125 ppm |  | < 4 ppm
6 | CCCCCCCCCCCCCC[N+]1(CC#CBr)CCCCC1 [Compound 6, 1-tetradecyl-1-(3-bromopropargyl)-piperidinium methanesulfonate] |  |  | < 4 µg/mL | < 4 µg/mL | > 500 ppm | > 500 ppm |  | 
7 | CCCCCCCCCCCCCC[N+]1(CC#CBr)CCCCC1 [Compound 17, 1-tetradecyl-1-(3-bromopropargyl)-piperidinium benzenesulfonate] |  |  |  |  | < 4 ppm | 32 ppm | < 4 ppm | < 4 ppm
8 | dimethyldodecyl ammonium 4-methylbenzenesulfonate [Compound 21] |  |  |  |  | 32 ppm | 250 ppm | 6.3 ppm | 3.2 ppm
9 | CCCCCCCCCCCCCC[N+]1(CC#CBr)CCCC1 [Compound 1, 1-tetradecyl-1-(3-bromopropargyl)-pyrrolidinium 4-methylbenzenesulfonate] | 8 µg/mL | > 500 µg/mL | < 4 µg/mL | < 4 µg/mL |  |  |  | 
10 | CCCCCCCCCCCCCC[N+]1(CC#CBr)CCOCC1 [Compound 4, 1-tetradecyl-1-(3-bromopropargyl)-morpholinium methanesulfonate] |  |  |  |  | 32 ppm | 500 ppm | < 4 ppm | < 4 ppm
11 | CCCCCCCCCCCCCC[N+]1(CC#CBr)CCCC1 [Compound 8, 1-tetradecyl-1-(3-bromopropargyl)-pyrrolidinium n-butanesulfonate] |  |  |  |  | < 4 ppm | 250 ppm | < 4 ppm | < 4 ppm
12 | CCCCCCCCCCCCCC[N+]1(CC#CBr)CCCCC1C (centres unmarked) [Compound 15, 1-tetradecyl-1-(3-bromopropargyl)-(2-methyl)piperidinium methanesulfonate] |  |  |  |  | 5 ppm | 300 ppm | 3.2 ppm | < 1 ppm
13 | CCCCCCCCCCCCCC[N+]1(CC#CBr)CCOCC1 [Compound 9, 1-tetradecyl-1-(3-bromopropargyl)-morpholinium bromide] |  |  |  |  | 8 ppm | 125 ppm | < 4 ppm | < 4 ppm
14 | CCCCCCCCCCCCCC[N+]1(CC#CBr)CCCC1 [Compound 5, 1-tetradecyl-1-(3-bromopropargyl)-pyrrolidinium benzenesulfonate] |  |  |  |  | 8 ppm | 500 ppm | < 4 ppm | < 4 ppm
15 | CCCCCCCCCCCCCC[N+]1(CC#CBr)CCOCC1 [Compound 3, 1-tetradecyl-1-(3-bromopropargyl)-morpholinium 4-methylbenzenesulfonate] |  |  |  |  | 8 ppm | 250 ppm | < 4 ppm | < 4 ppm
16 | CCCCCCCCCCCCCC[N+]1(CC#CBr)CCOCC1 [Compound 7, 1-tetradecyl-1-(3-bromopropargyl)-morpholinium n-butanesulfonate] |  |  |  |  | 16 ppm | 500 ppm | < 4 ppm | < 4 ppm
17 | CCCCCCCCCCCCCC[N+]1(CC#CBr)CCCCC1C (centres unmarked) [Compound 16, 1-tetradecyl-1-(3-bromopropargyl)-(2-methyl)piperidinium benzenesulfonate] |  |  |  |  | 8 ppm | 500 ppm | < 4 ppm | < 4 ppm
18 | CCCCCCCCCCCCC[N+]1(CC#CBr)CCOCC1 [Compound 10, 1-tridecyl-1-(3-bromopropargyl)-morpholinium bromide] | 32 µg/mL | 250 µg/mL | 16 µg/mL | < 4 µg/mL |  |  |  | 
19 | CCCCCCCC[N+](CC#CBr)(CCCCCCCC)CCCCCCCC [Compound 18, trioctyl-(3-bromopropargyl) ammonium benzenesulfonate] | < 4 µg/mL | 16 µg/mL | 1.6 µg/mL | 1.6 µg/mL |  |  |  | 

The remaining lines, values ahead:

Row | MIC (Escherichia coli) | MIC (Pseudomonas aeruginosa) | MIC (Aspergillus niger) | MIC (Rhodotorula rubra) | MIC (TSB media) Ecol (Escherichia coli) | MIC (TSB media) Psae (Pseudomonas aeruginosa) | MIC (TSB media) Anig (Aspergillus niger) | MIC (TSB media) Rrub (Rhodotorula rubra) | Compound
20 | 4 µg/mL | 125 µg/mL | 4 µg/mL | 2 µg/mL |  |  |  |  | CCCCCCCCCCCCCC[N+]1(CC#CI)CCCCC1 [Compound 33, reference compound]
21 | 32 µg/mL | 500 µg/mL | 12.5 µg/mL | 6.3 µg/mL |  |  |  |  | CCCCCCCC[N+](C)(CC#CBr)CCCCCCCC [Compound 25, methyldioctyl(3-bromopropargyl) ammonium 4-methylbenzenesulfonate]
22 |  |  |  |  | < 4 ppm | 8 ppm | 3.2 ppm | 0.8 ppm | CCCCCCCC[N+](CC#CBr)(CCCCCCCC)CCCCCCCC [Compound 20, trioctyl(3-bromopropargyl) ammonium 4-methylbenzenesulfonate]
23 | > 500 µg/mL | 1.6 µg/mL | 1.6 µg/mL | 1.6 µg/mL |  |  |  |  | CCCCCCCC[N+](CC#CI)(CCCCCCCC)CCCCCCCC [Compound 34, reference compound]
24 | 500 µg/mL | 500 µg/mL | > 50 µg/mL | > 50 µg/mL |  |  |  |  | CCCCCCCCCCCC[N+](CC#CBr)(CCCCCCCCCCCC)CCCCCCCCCCCC [Compound 24, tridodecyl(3-bromopropargyl) ammonium 4-methylbenzenesulfonate]
25 |  |  |  |  | 250 ppm | 500 ppm | 50 ppm | < 50 ppm | CCCCCC[N+](CC#CBr)(CCCCCC)CCCCCC [Compound 23, trihexyl(3-bromopropargyl) ammonium 4-methylbenzenesulfonate]
26 | 63 µg/mL | > 500 µg/mL | 12.5 µg/mL | 6.3 µg/mL |  |  |  |  | CCCCCC[N+](CC#CI)(CCCCCC)CCCCCC [Compound 31, reference compound]
27 | 125 µg/mL | 500 µg/mL | 25 µg/mL |  |  |  |  | 12.5 ppm | CCCCCC[N+](CC#CBr)(CCCCCC)CCCCCC [Compound 22, trihexyl(3-bromopropargyl) ammonium benzenesulfonate]
28 | 8 µg/mL | 125 µg/mL | 4 µg/mL | 4 µg/mL |  |  |  |  | CCCCCCCCCCCCCC[N+]1(CC#CI)CCOCC1 [Compound 32, reference compound]
29 | 16 µg/mL | 250 µg/mL | < 4 µg/mL | < 4 µg/mL |  |  |  |  | CCCCCCCC[N+](C)(C)CC#CBr [Compound 19, dimethyloctyl(3-bromopropargyl) ammonium benzenesulfonate]
